Assay results published in patent publication US10532065B2, “Bisphosphonic acid derivative and application for same” (NAGASAKI UNIVERSITY, priority 2014, dated 2020).
pEC50, pIC50: −log10 of the molar value. Read-outs that look alike come from different tables or passages of the source.

Tests used:
Type in all cases: cell-based
U937 cells = assay: U937 cell growth inhibition (direct antitumor action, CellTiterGlo); settings: for pIC50: U937 cell growth inhibition, 4 days culture; for direct antitumor activity (in words): U937 growth inhibition
Procedure: (§1) The direct antitumor action of bisphosphonic acid POM ester and bisphosphonic acid was studied by comparison using U937.
(§2) The direct antitumor action of various bisphosphonic acid POM esters was studied by comparison using U937 and EJ-1. The measurement was performed according to Experimental Example 2 and Experimental Example 4.

EJ-1 cells = assay: EJ-1 cell growth inhibition (direct antitumor action, CellTiterGlo); settings: for pIC50: EJ-1 (bladder cancer) growth inhibition, 4 days culture; for direct antitumor activity (in words): EJ-1 growth inhibition
Procedure: as §1
(§3) The direct antitumor action of bisphosphonic acid POM ester derivatives and bisphosphonic acids was studied by comparison using EJ-1. It was performed in the same manner as in Experimental Example 1 except that EJ-1 was used as the cell to be used. For recovery of the cells, a conventional EDTA trypsin treatment was performed.
as §3, with “POM esters” for “POM ester derivatives”, “Example 2” for “Example 1”
as §2

EJ-1 cells / γδ T cells = assay: TNF-α production from γδ T cells stimulated by compound-pretreated EJ-1 cells (indirect antitumor action, ELISA); settings: for pEC50: EJ-1 pretreated 4 hr with compound, 16 hr with γδ T cells, TNF-α ELISA, read-out: TNF-α50; for TNF-α production induction activity (in words): EJ-1 pretreated with compound, γδ T cells
Procedure: The indirect antitumor action of bisphosphonic acid POM esters and bisphosphonic acids was studied by comparison using EJ-1. In principle, EJ-1 is treated with a compound, washed, and reacted with γδ T cells, and the cytotoxic ability is studied by comparison, by quantifying TNF-α produced by γδ T cells during cell disordering. TNF-α is generally used as an index of γδ T cell induction ability and/or proliferative capacity, and γδ T cells are considered to be induced and/or proliferated in proportion to the TNF-α amount (Journal of Immunology, 154, 5986-5994 (1995)). Since the produced TNF-α is what is called a tumor necrosis factor, it is considered to have an action to lower proliferation of cancer cells or induce cell death.
Thereto was added a solution (500 μl) of compounds 3, 5, 6, 7, which are bisphosphonic acid POM ester derivatives, obtained by serially diluting 10 mM stock solution 10-fold from 20 μM, or a solution (500 μl) of bisphosphonic acid 10, 12, 13, 14 compound obtained by serially diluting 10-fold from 200 μM, and the cells were suspended well. These conical tubes were stood at 37° C. for 4 hr, and the cells were washed 3 times with 5 ml of culture medium. To these cells was added 500 μl of medium, and the cells were suspended well. […] The cell culture medium was suspended well, and the plate was centrifuged at 1,700 rpm, 4° C. for 2 min and the culture supernatant (150 μl) was taken and placed in another round-bottomed 96 well plate. The plate was frozen at −80° C. overnight, left standing at room temperature for 1 hr, stirred well and 100 μl thereof was subjected to ELISA of TNF-α. The content of TNF-α was calculated from the analytical curve of TNF-α. These were performed in triplicate, and a graph showing bisphosphonic acid POM ester derivative and the corresponding bisphosphonic acid as one pair was plotted. […] The results of bisphosphonic acid POM ester derivative are shown by -●-, and the results of bisphosphonic acid are shown by -◯-.
The indirect antitumor action of bisphosphonic acid POM esters and bisphosphonic acids was quantitatively studied by comparison using EJ-1. […] Thereto was added a solution (500 μl) of a bisphosphonic acid POM ester derivative obtained by serially diluting 10 mM stock solution 10-fold from 20 μM, or a bisphosphonic acid solution (500 μl) serially diluted 10-fold from 200 μM was added, and the cells were suspended well. These conical tubes were stood at 37° C. for 4 hr, and the cells were washed 3 times with 5 ml of culture medium. To these cells was added 500 μl of medium, and the cells were suspended well. […] The cell culture medium was suspended well, and the plate was centrifuged at 1,700 rpm, 4° C. for 2 min and the culture supernatant (150 μl) was taken and placed in another round-bottomed 96 well plate. The plate was frozen at −80° C. overnight, left standing at room temperature for 1 hr, stirred well and 100 μl thereof was subjected to ELISA of TNF-α. The content of TNF-α was calculated from the analytical curve of TNF-α. These were performed in triplicate, and a half of the concentration of compounds 1-7, which are bisphosphonic acid POM ester derivatives, and compounds 8-14, which are bisphosphonic acids, necessary for producing the maximum amount of TNF-α from γδ T cells was calculated as TNF-α50, and summarized in Table 6.
Therefore, the TNF-α50 value of various bisphosphonic acid POM ester derivatives was calculated. […] Thereto was added a solution (500 μl) of compounds 1-7 and 15-39, which are bisphosphonic acid POM ester derivatives, and compound 42, which is other bisphosphonic acid ester derivative, obtained by serially diluting 10 mM stock solution 10-fold from 20 μM, and the cells were suspended well. These conical tubes were stood at 37° C. for 4 hr, and the cells were washed 3 times with 5 ml of culture medium. To these cells was added 500 μl of medium, and the cells were suspended well. […]

Row | pIC50 (U937 cells) | pIC50 (EJ-1 cells) | pEC50 (EJ-1 cells / γδ T cells) | pIC50 (U937 cells; Homo sapiens, U-937, 96 h) | pIC50 (EJ-1 cells; EJ1, 96 h) | pEC50 (EJ-1 cells / γδ T cells; EJ1) | Structure (SMILES) | direct antitumor activity (in words) (U937 cells) | direct antitumor activity (in words) (EJ-1 cells) | TNF-α production induction activity (in words) (EJ-1 cells / γδ T cells)
1 | 5.05 | 4.89 | 5.34 | – | – | – | CC(C)(C)C(=O)OCOP(=O)(OCOC(=O)C(C)(C)C)C(CNc1ncccc1O)P(=O)(OCOC(=O)C(C)(C)C)OCOC(=O)C(C)(C)C [Compound 27, tetrakispivaloyloxymethyl 2-(3-hydroxypyridin-2-ylamino)ethylidene-1,1-bisphosphonate] | – | – | –
2 | 5.62 | 7.05 | 7.10 | – | – | – | CC(C)(C)C(=O)OCOP(=O)(OCOC(=O)C(C)(C)C)C(CNc1ncccn1)P(=O)(OCOC(=O)C(C)(C)C)OCOC(=O)C(C)(C)C [Compound 6, tetrakispivaloyloxymethyl 2-(pyrimidin-2-ylamino)ethylidene-1,1-bisphosphonate] | high activity | high activity | high activity
3 | – | – | – | 4.77 | 4.80 | 5.15 | CC(=O)OCOP(=O)(OCOC(C)=O)C(CNc1ccccn1)P(=O)(OCOC(C)=O)OCOC(C)=O [Compound 42, tetrakisacetyloxymethyl 2-(pyridin-2-ylamino) ethylidene-1,1-bisphosphonate] | – | – | –
4 | 5.10 | 4.82 | 5.10 | – | – | – | CC(C)(C)C(=O)OCOP(=O)(OCOC(=O)C(C)(C)C)C(CNc1ccon1)P(=O)(OCOC(=O)C(C)(C)C)OCOC(=O)C(C)(C)C [Compound 36, tetrakispivaloyloxymethyl 2-(isoxazol-3-ylamino)ethylidene-1,1-bisphosphonate] | – | – | –
5 | 5.28 | 4.96 | 6.26 | – | – | – | CN(CC(P(=O)(OCOC(=O)C(C)(C)C)OCOC(=O)C(C)(C)C)P(=O)(OCOC(=O)C(C)(C)C)OCOC(=O)C(C)(C)C)c1ccccn1 [Compound 1, tetrakispivaloyloxymethyl 2-(methylpyridin-2-ylamino)ethylidene-1,1-bisphosphonate] | – | – | –
6 | 6.19 | 7.23 | 7.21 | – | – | – | CC(C)(C)C(=O)OCOP(=O)(OCOC(=O)C(C)(C)C)C(CNc1ccncn1)P(=O)(OCOC(=O)C(C)(C)C)OCOC(=O)C(C)(C)C [Compound 39, tetrakispivaloyloxymethyl 2-(pyrimidin-4-ylamino)ethylidene-1,1-bisphosphonate] | particularly high activity | particularly high activity | high activity
7 | 5.60 | 5.96 | 7.20 | – | – | – | Cc1cnc(NCC(P(=O)(OCOC(=O)C(C)(C)C)OCOC(=O)C(C)(C)C)P(=O)(OCOC(=O)C(C)(C)C)OCOC(=O)C(C)(C)C)s1 [Compound 34, tetrakispivaloyloxymethyl 2-(5-methylthiazol-2-ylamino)ethylidene-1,1-bisphosphonate] | high activity | high activity | high activity
8 | 5.15 | 5.22 | 5.19 | – | – | – | CC(C)(C)C(=O)OCOP(=O)(OCOC(=O)C(C)(C)C)C(CNc1cc(Br)ccn1)P(=O)(OCOC(=O)C(C)(C)C)OCOC(=O)C(C)(C)C [Compound 28, tetrakispivaloyloxymethyl 2-(4-bromopyridin-2-ylamino)ethylidene-1,1-bisphosphonate] | – | – | –
9 | – | – | – | 2.96 | 3.01 | < 4.00 | O=P(O)(O)C(CNc1ncccc1Br)P(=O)(O)O [Compound 9, 2-(3-bromopyridin-2-ylamino)ethylidene-1,1-bisphosphonic Acid, reference compound] | – | – | –
10 | 5.15 | 5.06 | < 5.00 | – | – | – | CC(C)(C)C(=O)OCOP(=O)(OCOC(=O)C(C)(C)C)C(CNc1ncccc1-c1ccc(F)cc1)P(=O)(OCOC(=O)C(C)(C)C)OCOC(=O)C(C)(C)C [Compound 26, tetrakispivaloyloxymethyl 2-[3-(4-fluorophenyl)pyridin-2-ylamino]ethylidene-1,1-bisphosphonate] | – | – | –
11 | 5.21 | 5.05 | < 5.00 | – | – | – | CC(C)(C)C(=O)OCOP(=O)(OCOC(=O)C(C)(C)C)C(CNc1cccc(Br)n1)P(=O)(OCOC(=O)C(C)(C)C)OCOC(=O)C(C)(C)C [Compound 21, tetrakispivaloyloxymethyl 2-(6-bromopyridin-2-ylamino)ethylidene-1,1-bisphosphonate] | – | – | –
12 | 4.96 | 5.07 | 5.72 | – | – | – | CC(C)(C)C(=O)OCOP(=O)(OCOC(=O)C(C)(C)C)C(CNc1nncs1)P(=O)(OCOC(=O)C(C)(C)C)OCOC(=O)C(C)(C)C [Compound 38, tetrakispivaloyloxymethyl 2-(1,3,4-thiadiazol-2-ylamino)ethylidene-1,1-bisphosphonate] | – | – | –
13 | 5.17 | 4.82 | 5.29 | – | – | – | Cc1ccnc(NCC(P(=O)(OCOC(=O)C(C)(C)C)OCOC(=O)C(C)(C)C)P(=O)(OCOC(=O)C(C)(C)C)OCOC(=O)C(C)(C)C)c1 [Compound 16, tetrakispivaloyloxymethyl 2-(4-methylpyridin-2-ylamino)ethylidene-1,1-bisphosphonate] | – | – | –
14 | 5.20 | 4.92 | 5.36 | – | – | – | CC(C)(C)C(=O)OCOP(=O)(OCOC(=O)C(C)(C)C)C(CNc1cc[nH]n1)P(=O)(OCOC(=O)C(C)(C)C)OCOC(=O)C(C)(C)C [Compound 32, tetrakispivaloyloxymethyl 2-(pyrazol-3-ylamino) ethylidene-1,1-bisphosphonate] | – | – | –
15 | 5.30 | 5.38 | 5.44 | – | – | – | Cc1csc(NCC(P(=O)(OCOC(=O)C(C)(C)C)OCOC(=O)C(C)(C)C)P(=O)(OCOC(=O)C(C)(C)C)OCOC(=O)C(C)(C)C)n1 [Compound 33, tetrakispivaloyloxymethyl 2-(4-methylthiazol-2-ylamino)ethylidene-1,1-bisphosphonate] | – | – | –
16 | 6.17 | 5.64 | 5.35 | – | – | – | CC(C)(C)C(=O)OCOP(=O)(OCOC(=O)C(C)(C)C)C(CNc1ncccc1Br)P(=O)(OCOC(=O)C(C)(C)C)OCOC(=O)C(C)(C)C [Compound 2, tetrakispivaloyloxymethyl 2-(3-bromopyridin-2-ylamino)ethylidene-1,1-bisphosphonate] | high activity | high activity | –
17 | 5.44 | 5.11 | 6.15 | – | – | – | CC(C)(C)C(=O)OCOP(=O)(OCOC(=O)C(C)(C)C)C(CNc1ccc(Br)cn1)P(=O)(OCOC(=O)C(C)(C)C)OCOC(=O)C(C)(C)C [Compound 4, tetrakispivaloyloxymethyl 2-(5-bromopyridin-2-ylamino)ethylidene-1,1-bisphosphonate] | – | – | –
